Data from ChEMBL document CHEMBL4819140, “A novel GSK-3 inhibitor binds to GSK-3β via a reversible, time and Cys-199-dependent mechanism” (Bioorg Med Chem, 2021).
Each block holds one compound with its values, some of them ahead of it. Active and inactive are the calls of the source. The rule behind the calls is not given here.

Experiments:
[1] = target: T1, Glycogen synthase kinase-3 beta (Homo sapiens, UniProt P49841); assay: Inhibition of human GSK-3beta assessed as decrease in relative fluorescence unit measured upto 60 mins by kinase-profiling analysis; conditions: time min <=60, TDE = time-dependent effect
Target sequence in this assay (P49841 whole entry, looked up): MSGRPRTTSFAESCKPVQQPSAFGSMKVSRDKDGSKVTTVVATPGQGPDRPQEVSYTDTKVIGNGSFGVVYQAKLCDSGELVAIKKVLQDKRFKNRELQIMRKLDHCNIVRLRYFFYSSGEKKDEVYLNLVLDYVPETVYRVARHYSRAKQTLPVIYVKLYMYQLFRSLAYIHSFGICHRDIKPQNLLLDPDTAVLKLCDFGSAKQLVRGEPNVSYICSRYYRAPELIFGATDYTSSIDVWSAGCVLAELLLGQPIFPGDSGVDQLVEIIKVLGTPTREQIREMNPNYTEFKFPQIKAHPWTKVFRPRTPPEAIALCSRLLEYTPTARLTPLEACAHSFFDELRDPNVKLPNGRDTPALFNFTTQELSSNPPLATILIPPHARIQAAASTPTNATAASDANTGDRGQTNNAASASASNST

[2] = target: T1, Glycogen synthase kinase-3 beta; assay: Reversible inhibition of recombinant human GSK-3beta at 10 uM preincubated for 3 hrs followed by diluted with substrate and ATP master mix solution measured upto 1.5 hrs by jump dilution assays; conditions: time 4.5 hrs, TDE = time-dependent effect
Target sequence in this assay (P49841 whole entry, looked up): as above

[3] = target: T1, Glycogen synthase kinase-3 beta; assay: Reversible inhibition of recombinant human GSK-3beta at 10 uM preincubated for 3 hrs followed by diluted with substrate and ATP master mix solution measured first 30 mins by jump dilution assays; conditions: time 3.5 hrs
Target sequence in this assay (P49841 whole entry, looked up): as above

[4] = target: T1, Glycogen synthase kinase-3 beta; assay: Reversible inhibition of recombinant human GSK-3beta at 70 uM preincubated for 3 hrs followed by diluted with substrate and ATP master mix solution measured upto 1.5 hrs by jump dilution assays relative to control; conditions: time 4.5 hrs
Target sequence in this assay (P49841 whole entry, looked up): as above

[5] = target: T1, Glycogen synthase kinase-3 beta; assay: Inhibition of human GSK-3beta incubated with substrate in presence of ATP measured by serial dilution assay
Target sequence in this assay (P49841 whole entry): as the sequence (P49841 whole entry, looked up) above

[6] = target: T1, Glycogen synthase kinase-3 beta; assay: Inhibition of human GSK-3beta preincubated for 3 hrs followed by ATP and substrate addition measured by serial dilution assay
Target sequence in this assay (P49841 whole entry): as the sequence (P49841 whole entry, looked up) above

[7] = target: AP2-associated protein kinase 1 (Homo sapiens) (UniProt Q2M2I8); assay: Inhibition of human recombinant AAK1 by Lanthascreen assay; conditions: concentration not given here
[8] = target: Cyclin-dependent kinase-like 5 (Homo sapiens) (UniProt O76039); assay: Inhibition of human recombinant CDKL5 in presence of ATP by Z-lyte kinase assay; conditions: concentration not given here
[9] = target: Vascular endothelial growth factor receptor 1 (Homo sapiens) (UniProt P17948); assay: Inhibition of human recombinant FLT1 in presence of ATP by Z-lyte kinase assay; conditions: concentration not given here
[10] = target: Receptor-type tyrosine-protein kinase FLT3 (Homo sapiens) (UniProt P36888); assay: Inhibition of human recombinant FLT3 in presence of ATP by Z-lyte kinase assay; conditions: concentration not given here
[11] = target: Vascular endothelial growth factor receptor 3 (Homo sapiens) (UniProt P35916); assay: Inhibition of human recombinant FLT4 in presence of ATP by Z-lyte kinase assay; conditions: concentration not given here
[12] = target: Cyclin-G-associated kinase (Homo sapiens) (UniProt O14976); assay: Inhibition of human recombinant GAK by Lanthascreen assay; conditions: concentration not given here
[13] = target: Glycogen synthase kinase-3 alpha (Homo sapiens) (UniProt P49840); assay: Inhibition of human recombinant GSK3A in presence of ATP by Z-lyte kinase assay; conditions: concentration not given here
[14] = target: T1, Glycogen synthase kinase-3 beta; assay: Inhibition of human recombinant GSK3B in presence of ATP by Z-lyte kinase assay; conditions: concentration not given here
Target sequence in this assay (P49841 whole entry, looked up): as above

[15] = target: Mast/stem cell growth factor receptor Kit (Homo sapiens) (UniProt P10721); assay: Inhibition of human recombinant KIT in presence of ATP by Z-lyte kinase assay; conditions: concentration not given here
Chain of Mast/stem cell growth factor receptor Kit (Homo sapiens) (P10721 whole entry): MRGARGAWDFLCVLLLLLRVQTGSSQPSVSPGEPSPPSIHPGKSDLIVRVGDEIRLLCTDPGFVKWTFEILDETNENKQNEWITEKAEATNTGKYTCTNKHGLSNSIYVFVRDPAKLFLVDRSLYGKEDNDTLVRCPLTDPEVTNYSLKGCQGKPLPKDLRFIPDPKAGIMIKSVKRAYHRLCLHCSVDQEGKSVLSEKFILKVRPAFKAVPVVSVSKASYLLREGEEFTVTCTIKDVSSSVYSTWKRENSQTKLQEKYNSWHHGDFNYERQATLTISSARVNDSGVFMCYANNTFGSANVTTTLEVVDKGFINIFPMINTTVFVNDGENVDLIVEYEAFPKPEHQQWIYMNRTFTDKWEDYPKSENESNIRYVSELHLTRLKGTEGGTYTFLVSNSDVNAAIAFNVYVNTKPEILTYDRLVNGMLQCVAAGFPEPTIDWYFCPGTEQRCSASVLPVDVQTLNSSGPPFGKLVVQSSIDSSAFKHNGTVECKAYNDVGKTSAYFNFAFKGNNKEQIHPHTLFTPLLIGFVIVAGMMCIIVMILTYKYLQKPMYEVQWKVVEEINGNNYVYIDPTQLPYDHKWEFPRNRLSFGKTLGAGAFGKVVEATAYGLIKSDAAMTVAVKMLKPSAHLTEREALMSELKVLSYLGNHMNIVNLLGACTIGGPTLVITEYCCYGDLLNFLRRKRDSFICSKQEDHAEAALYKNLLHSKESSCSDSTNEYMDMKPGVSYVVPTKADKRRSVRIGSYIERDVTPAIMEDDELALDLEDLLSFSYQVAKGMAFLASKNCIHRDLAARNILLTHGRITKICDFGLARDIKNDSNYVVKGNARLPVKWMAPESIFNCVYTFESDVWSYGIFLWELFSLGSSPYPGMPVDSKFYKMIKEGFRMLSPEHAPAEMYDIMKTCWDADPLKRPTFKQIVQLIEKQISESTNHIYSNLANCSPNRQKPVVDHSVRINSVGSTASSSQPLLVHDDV

[16] = target: Dual specificity mitogen-activated protein kinase kinase 1 (Homo sapiens) (UniProt Q02750); assay: Inhibition of human recombinant MAP2K1 in presence of ATP by Z-lyte kinase assay; conditions: concentration not given here
Chain of Dual specificity mitogen-activated protein kinase kinase 1 (Homo sapiens) (Q02750 whole entry): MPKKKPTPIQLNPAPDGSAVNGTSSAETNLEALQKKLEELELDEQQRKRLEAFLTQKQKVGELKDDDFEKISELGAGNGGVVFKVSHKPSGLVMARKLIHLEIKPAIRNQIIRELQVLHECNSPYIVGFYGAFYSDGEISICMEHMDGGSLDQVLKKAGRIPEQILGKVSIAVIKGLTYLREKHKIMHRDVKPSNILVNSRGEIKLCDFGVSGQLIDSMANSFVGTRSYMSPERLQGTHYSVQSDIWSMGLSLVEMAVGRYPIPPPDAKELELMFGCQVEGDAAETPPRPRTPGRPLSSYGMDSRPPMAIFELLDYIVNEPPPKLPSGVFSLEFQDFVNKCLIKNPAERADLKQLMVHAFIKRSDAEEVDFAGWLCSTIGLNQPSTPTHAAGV

[17] = target: Dual specificity mitogen-activated protein kinase kinase 1 (Homo sapiens) (UniProt Q02750); assay: Inhibition of human recombinant MAP2K1 by Lanthascreen assay; conditions: concentration not given here
[18] = target: Dual specificity mitogen-activated protein kinase kinase 2 (Homo sapiens) (UniProt P36507); assay: Inhibition of human recombinant MAP2K2 in presence of 100 uM ATP by Z-lyte kinase assay
Chain of Dual specificity mitogen-activated protein kinase kinase 2 (Homo sapiens) (P36507 whole entry): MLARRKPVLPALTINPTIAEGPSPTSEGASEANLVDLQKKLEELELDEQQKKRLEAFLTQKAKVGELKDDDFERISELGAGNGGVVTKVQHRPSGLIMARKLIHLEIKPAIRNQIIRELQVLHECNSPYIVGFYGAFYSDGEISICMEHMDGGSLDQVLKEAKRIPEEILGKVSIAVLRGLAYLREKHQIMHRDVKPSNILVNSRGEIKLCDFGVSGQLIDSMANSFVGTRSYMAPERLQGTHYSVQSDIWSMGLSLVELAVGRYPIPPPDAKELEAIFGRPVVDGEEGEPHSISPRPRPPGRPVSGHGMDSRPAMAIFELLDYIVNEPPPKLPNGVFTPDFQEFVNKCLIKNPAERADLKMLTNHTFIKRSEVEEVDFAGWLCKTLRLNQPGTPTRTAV

[19] = target: Dual specificity mitogen-activated protein kinase kinase 2 (Homo sapiens) (UniProt P36507); assay: Inhibition of human recombinant MAP2K2 by Lanthascreen assay; conditions: concentration not given here
[20] = target: Dual specificity mitogen-activated protein kinase kinase 3 (Homo sapiens) (UniProt P46734); assay: Inhibition of human recombinant MAP2K3 by Lanthascreen assay; conditions: concentration not given here
[21] = target: Dual specificity mitogen-activated protein kinase kinase 4 (Homo sapiens) (UniProt P45985); assay: Inhibition of human recombinant MAP2K4 by Lanthascreen assay; conditions: concentration not given here
[22] = target: Dual specificity mitogen-activated protein kinase kinase 5 (Homo sapiens) (UniProt Q13163); assay: Inhibition of human recombinant MAP2K5 by Lanthascreen assay; conditions: concentration not given here
[23] = target: Mitogen-activated protein kinase kinase kinase 7 (Homo sapiens) (UniProt O43318); assay: Inhibition of human recombinant MAP3K7 by Lanthascreen assay; conditions: concentration not given here
[24] = target: Mitogen-activated protein kinase 1 (Homo sapiens) (UniProt P28482); assay: Inhibition of human recombinant MAPK1 in presence of ATP by Z-lyte kinase assay; conditions: concentration not given here
[25] = target: Mitogen-activated protein kinase 15 (Homo sapiens) (UniProt Q8TD08); assay: Inhibition of human recombinant MAPK15 by Lanthascreen assay; conditions: concentration not given here
Chain of Mitogen-activated protein kinase 15 (Homo sapiens) (Q8TD08 whole entry): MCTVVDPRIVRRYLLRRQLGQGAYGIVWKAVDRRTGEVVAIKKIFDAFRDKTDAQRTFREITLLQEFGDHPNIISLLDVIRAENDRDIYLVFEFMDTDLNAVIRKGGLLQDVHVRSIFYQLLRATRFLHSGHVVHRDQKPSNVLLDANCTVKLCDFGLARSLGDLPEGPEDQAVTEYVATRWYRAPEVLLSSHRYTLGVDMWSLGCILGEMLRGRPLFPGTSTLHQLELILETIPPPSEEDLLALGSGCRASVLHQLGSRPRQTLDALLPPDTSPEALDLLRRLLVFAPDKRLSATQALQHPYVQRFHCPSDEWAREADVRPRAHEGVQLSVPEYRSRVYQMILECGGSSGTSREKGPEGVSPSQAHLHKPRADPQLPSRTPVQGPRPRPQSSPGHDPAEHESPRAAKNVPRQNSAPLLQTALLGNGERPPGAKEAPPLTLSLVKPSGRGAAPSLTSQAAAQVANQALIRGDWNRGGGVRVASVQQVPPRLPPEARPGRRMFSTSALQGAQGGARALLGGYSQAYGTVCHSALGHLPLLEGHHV

[26] = target: Mitogen-activated protein kinase 3 (Homo sapiens) (UniProt P27361); assay: Inhibition of human recombinant MAPK3 in presence of ATP by Z-lyte kinase assay; conditions: concentration not given here
[27] = target: MAP kinase-activated protein kinase 5 (Homo sapiens) (UniProt Q8IW41); assay: Inhibition of human recombinant PRAK in presence of ATP by Z-lyte kinase assay; conditions: concentration not given here
[28] = target: MAP kinase-interacting serine/threonine-protein kinase 1 (Homo sapiens) (UniProt Q9BUB5); assay: Inhibition of human recombinant MNK1 in presence of ATP by Z-lyte kinase assay; conditions: concentration not given here
[29] = target: MAP kinase-interacting serine/threonine-protein kinase 2 (Homo sapiens) (UniProt Q9HBH9); assay: Inhibition of human recombinant MNK2 by Lanthascreen assay; conditions: concentration not given here
[30] = target: Serine/threonine-protein kinase NLK (Homo sapiens) (UniProt Q9UBE8); assay: Inhibition of human recombinant NLK by Lanthascreen assay; conditions: concentration not given here
[31] = target: Platelet-derived growth factor receptor alpha (Homo sapiens) (UniProt P16234); assay: Inhibition of human recombinant PDGFRA in presence of ATP by Z-lyte kinase assay; conditions: concentration not given here
[32] = target: Platelet-derived growth factor receptor beta (Homo sapiens) (UniProt P09619); assay: Inhibition of human recombinant PDGFRB in presence of ATP by Z-lyte kinase assay; conditions: concentration not given here
[33] = target: Serine/threonine-protein kinase D3 (Homo sapiens) (UniProt O94806); assay: Inhibition of human recombinant PKD3 in presence of ATP by Z-lyte kinase assay; conditions: concentration not given here
[34] = target: Serine/threonine-protein kinase D2 (Homo sapiens) (UniProt Q9BZL6); assay: Inhibition of human recombinant PKD2 in presence of ATP by Z-lyte kinase assay; conditions: concentration not given here
Chain of Serine/threonine-protein kinase D2 (Homo sapiens) (Q9BZL6 whole entry): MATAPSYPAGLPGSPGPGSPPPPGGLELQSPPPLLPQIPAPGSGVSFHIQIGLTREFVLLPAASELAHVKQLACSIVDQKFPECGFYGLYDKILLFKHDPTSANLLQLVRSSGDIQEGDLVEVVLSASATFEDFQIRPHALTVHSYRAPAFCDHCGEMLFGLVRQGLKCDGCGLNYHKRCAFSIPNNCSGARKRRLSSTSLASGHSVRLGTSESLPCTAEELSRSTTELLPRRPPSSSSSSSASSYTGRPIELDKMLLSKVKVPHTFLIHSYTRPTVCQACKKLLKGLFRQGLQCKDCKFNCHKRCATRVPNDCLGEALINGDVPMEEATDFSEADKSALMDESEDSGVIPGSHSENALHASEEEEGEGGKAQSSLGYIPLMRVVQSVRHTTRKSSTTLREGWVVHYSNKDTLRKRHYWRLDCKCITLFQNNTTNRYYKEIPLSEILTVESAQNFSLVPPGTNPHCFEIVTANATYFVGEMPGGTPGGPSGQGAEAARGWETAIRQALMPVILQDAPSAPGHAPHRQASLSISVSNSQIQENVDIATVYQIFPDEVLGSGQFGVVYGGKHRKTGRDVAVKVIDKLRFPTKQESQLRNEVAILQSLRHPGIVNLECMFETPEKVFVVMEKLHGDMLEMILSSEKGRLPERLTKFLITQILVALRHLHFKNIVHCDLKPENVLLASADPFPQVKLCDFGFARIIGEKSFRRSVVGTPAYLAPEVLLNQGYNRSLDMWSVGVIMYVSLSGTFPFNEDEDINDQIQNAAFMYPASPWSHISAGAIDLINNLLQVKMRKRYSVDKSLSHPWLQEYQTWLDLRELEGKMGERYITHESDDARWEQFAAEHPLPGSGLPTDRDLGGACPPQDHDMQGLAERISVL

[35] = target: Ribosomal protein S6 kinase alpha-1 (Homo sapiens) (UniProt Q15418); assay: Inhibition of human recombinant RSK1 in presence of ATP by Z-lyte kinase assay; conditions: concentration not given here
[36] = target: Ribosomal protein S6 kinase alpha-2 (Homo sapiens) (UniProt Q15349); assay: Inhibition of human recombinant RSK3 in presence of ATP by Z-lyte kinase assay; conditions: concentration not given here
[37] = target: Ribosomal protein S6 kinase alpha-3 (Homo sapiens) (UniProt P51812); assay: Inhibition of human recombinant RSK2 in presence of ATP by Z-lyte kinase assay; conditions: concentration not given here
[38] = target: Ribosomal protein S6 kinase alpha-6 (Homo sapiens) (UniProt Q9UK32); assay: Inhibition of human recombinant RSK4 in presence of ATP by Z-lyte kinase assay; conditions: concentration not given here
[39] = target: TGF-beta receptor type-2 (Homo sapiens) (UniProt P37173); assay: Inhibition of human recombinant TGFBR2 by Lanthascreen assay; conditions: concentration not given here
[40] = target: Mitogen-activated protein kinase kinase kinase 20 (Homo sapiens) (UniProt Q9NYL2); assay: Inhibition of human recombinant ZAK by Lanthascreen assay; conditions: concentration not given here
[41] = target: Glycogen synthase kinase-3 beta (Homo sapiens, UniProt P49841, C199A); assay: Inhibition of human GSK-3beta C199A mutant incubated with substrate in presence of ATP measured by serial dilution assay
Chain of Glycogen synthase kinase-3 beta (Homo sapiens, UniProt P49841, C199A) (P49841 whole entry C199A): as the sequence (P49841 whole entry, looked up) above, with C199A counted along it

[42] = Thiol reactivity of the compound with ethanethiol DTT by HPLC analysis; type: physicochemical
[43] = Thiol reactivity of the compound with tri-butylphosphine by HPLC analysis; type: physicochemical
[44] = target: T1, Glycogen synthase kinase-3 beta; conditions: dose 700.0 nM
Target sequence in this assay (P49841 whole entry, looked up): as the sequence (P49841 whole entry, looked up) above
Description: Reversible inhibition of recombinant human GSK-3beta at 700 nM incubated with substrate and ATP master mix solution by jump dilution assays

[45] = target: T1, Glycogen synthase kinase-3 beta; conditions: dose 200.0 nM
[46] = target: T1, Glycogen synthase kinase-3 beta; conditions: dose 100.0 nM
[47] = target: T1, Glycogen synthase kinase-3 beta; conditions: dose 400.0 nM, time 4.5 hrs

inhibition [1]: Tde
inhibition [2]: Tde
inhibition [3]: Active
inhibition [4]: Active
IC50 [5]: 370 nM
IC50 [6]: 102 nM
inhibition [7]: 11%
inhibition [8]: 3.2%
inhibition [9]: 0%
inhibition [10]: 2%
inhibition [11]: 1.9%
inhibition [12]: 24%
inhibition [13]: 91%
inhibition [14]: 89%
inhibition [15]: 4%
inhibition [16]: 6%
inhibition [17]: 5%
inhibition [18]: 7%
inhibition [19]: 4%
inhibition [20]: 7%
inhibition [21]: 12%
inhibition [22]: 1%
inhibition [23]: 21%
inhibition [24]: 29%
inhibition [26]: 26%
inhibition [27]: 60%
inhibition [28]: -2%
inhibition [29]: 1%
inhibition [30]: 24%
inhibition [31]: -2%
inhibition [32]: -2%
inhibition [33]: 10%
inhibition [34]: 11%
inhibition [35]: 6%
inhibition [36]: 9%
inhibition [37]: 11%
inhibition [38]: 18%
inhibition [39]: 20%
inhibition [40]: 9%
IC50 [41]: 121000 nM
Drug metabolism [42]: Metabolite_Notdetected
Drug metabolism [43]: Metabolite_Notdetected
inhibition [44]: inactive
inhibition [45]: inactive
inhibition [46]: inactive
SMILES: OC1(c2ccccc2)CSC(=S)N1Cc1ccncc1 (configuration not stated)
inhibition [25]: 26%

SMILES: COc1cc(O)c2c(c1)[C@H]1O[C@@H]1C[C@H](O)[C@H](O)C(=O)/C=C\C[C@H](C)OC2=O [HYPOTHEMYCIN]
IC50 [5]: 11300 nM
IC50 [6]: 663 nM
inhibition [44]: inactive
inhibition [45]: inactive
inhibition [46]: inactive

inhibition [47]: Active
SMILES: O=C1Cc2c([nH]c3ccc([N+](=O)[O-])cc23)-c2ccccc2N1
